Laboratory results from patent US20040185558A1, “Method for culturing brain tissue in three dimensions” (priority 2003, published 2004).

Test system: hippocampal tissue grown under SMC
Assay: field EPSP evoked by electrical stimulation in hippocampal tissue cultured 10 days under simulated microgravity conditions
Assay type: cell-based, Sprauge-Dawley rats
From the text: In order to determine whether hippocampal tissue grown under SMC is able to generate electrical signals, hippocampal tissue grown under SMC for 10 days as described was electrically stimulated and field excitatory postsynaptic potential (EPSP) recorded. […] One important characteristic of the response is the presence of paired-pulse facilitation (PPF) (FIGS. 3A and 3B). PDF have been described and characterized in acute slices from the hippocampus and are an example of frequency-dependent short-term plasticity of excitatory synapses. This phenomenon is accounted for by the residual calcium hypothesis, according to which the small fraction of calcium entering the terminal during the first spike increases the probability of transmitter release to a second action potential (Zucker, 1989). […]
Sprauge-Dawley rats (7-9 days old) are quickly decapitated and the brain is rapidly removed and placed in ice-cold Gey's solution (g/L): NaCl (7), KCl (0.37), MgSO4-7H2O (0.06), MgCl2-6H2O (0.21), KH2PO4 (0.03), Na2HPO4-7H2O (0.23), Glucose (1), CaCl2-2H2O (0.23) and NaHCO3 ([…]). […] The slices will be monitored daily and rotary speed will be adjusted in order to avoid any free falling. […]

SMILES: NC(CCCP(=O)(O)O)C(=O)O (centres unmarked) [APV, amino-5-phosphonovaleric acid]
- effect on field EPSP (NMDA subtype glutamate receptor antagonist) (100 μM APV, hippocampal tissue grown under SMC, vs no antagonist): partially block

SMILES: [Cl][Co][Cl] [CoCl2, cobalt chloride]
- effect on field EPSP (dependence on voltage gated calcium current) (perfused with 1 mM CoCl2, hippocampal tissue grown under SMC 10 days, reversible after washout): reversibly blocked
